Calls of active or inactive are those of the source. No cut-off for these calls is given here.
Tests used:
[1] = target: 5-hydroxytryptamine receptor 2A (Homo sapiens, UniProt P28223); assay: Displacement of [3H]ketanserin from human 5HT2A receptor expressed in HEK293 cells incubated for 1.5 hrs by Cheng-Prusoff analysis based microbeta scintillation counting method; format: cell-based
[2] = target: Serotonin transporter (SERT); assay: biochemical
[3] = target: 5-hydroxytryptamine receptor 6 (Homo sapiens, UniProt P50406); assay: biochemical
5-hydroxytryptamine receptor 6, sequence (P50406 whole entry): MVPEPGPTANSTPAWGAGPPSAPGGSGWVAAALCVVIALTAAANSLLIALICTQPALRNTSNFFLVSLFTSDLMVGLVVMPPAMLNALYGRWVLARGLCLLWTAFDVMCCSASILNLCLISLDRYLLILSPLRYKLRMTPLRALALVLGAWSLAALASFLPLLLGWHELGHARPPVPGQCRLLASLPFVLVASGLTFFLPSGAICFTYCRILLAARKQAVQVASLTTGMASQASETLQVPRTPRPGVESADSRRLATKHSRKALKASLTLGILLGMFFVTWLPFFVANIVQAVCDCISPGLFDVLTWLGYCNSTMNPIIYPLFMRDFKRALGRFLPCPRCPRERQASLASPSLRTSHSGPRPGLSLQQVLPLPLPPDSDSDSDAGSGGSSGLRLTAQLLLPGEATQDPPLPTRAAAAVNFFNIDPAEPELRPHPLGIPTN
Description: Displacement of [3H]LSD from human 5-HT6 receptor expressed in HEK cells incubated for 1 hr by Cheng-Prusoff analysis based microbeta scintillation counting method

[4] = Half life in human liver microsomes at 1 uM measured for 5 to 60 mins under shaking condition in presence of NADPH by LCMS analysis; format: ADME, Microsome
[5] = target: 5-hydroxytryptamine receptor 7 (Homo sapiens, UniProt P34969); assay: biochemical
5-hydroxytryptamine receptor 7, sequence (P34969 whole entry): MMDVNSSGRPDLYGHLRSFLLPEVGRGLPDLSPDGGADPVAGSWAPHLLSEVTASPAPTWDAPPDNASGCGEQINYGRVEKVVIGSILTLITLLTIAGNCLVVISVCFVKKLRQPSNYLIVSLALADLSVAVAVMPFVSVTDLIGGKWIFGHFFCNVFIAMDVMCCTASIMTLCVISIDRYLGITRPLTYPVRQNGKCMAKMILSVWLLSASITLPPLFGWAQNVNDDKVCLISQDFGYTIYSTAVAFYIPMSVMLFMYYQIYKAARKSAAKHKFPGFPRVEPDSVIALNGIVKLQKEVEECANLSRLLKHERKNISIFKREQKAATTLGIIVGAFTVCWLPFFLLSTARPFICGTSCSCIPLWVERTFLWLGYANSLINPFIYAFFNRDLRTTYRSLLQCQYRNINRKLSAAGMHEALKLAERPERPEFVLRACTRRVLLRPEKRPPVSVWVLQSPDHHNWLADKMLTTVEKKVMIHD
Description: Displacement of [3H]-5-CT from human 5HT7 receptor expressed in HEK cells incubated for 1 hr by Cheng-Prusoff analysis based microbeta scintillation counting method

[6] = target: D(2) dopamine receptor (Homo sapiens, UniProt P14416); assay: biochemical
D(2) dopamine receptor, sequence (P14416 whole entry): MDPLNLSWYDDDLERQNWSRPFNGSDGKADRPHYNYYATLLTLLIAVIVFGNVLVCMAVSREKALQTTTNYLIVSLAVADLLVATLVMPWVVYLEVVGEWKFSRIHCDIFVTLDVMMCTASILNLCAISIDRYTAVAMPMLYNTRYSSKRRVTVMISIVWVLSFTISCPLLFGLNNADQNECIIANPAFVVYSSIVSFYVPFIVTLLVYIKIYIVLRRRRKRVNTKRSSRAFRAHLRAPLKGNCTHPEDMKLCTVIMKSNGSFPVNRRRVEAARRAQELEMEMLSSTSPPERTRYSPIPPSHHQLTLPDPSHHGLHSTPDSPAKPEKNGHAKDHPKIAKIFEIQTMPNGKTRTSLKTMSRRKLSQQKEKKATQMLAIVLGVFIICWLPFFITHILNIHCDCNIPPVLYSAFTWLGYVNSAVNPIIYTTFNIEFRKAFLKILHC
Description: Displacement of [3H]-raclopride from human D2 receptor expressed in HEK cells incubated for 1 hr by Cheng-Prusoff analysis based microbeta scintillation counting method

[7] = system: Mus musculus; assay: Induction of hypothermia in CD-1 mouse assessed as change in body temperature at 5 mg/kg, ip treated for 120 mins and measured after 30 mins by thermometric method; format: functional, organism-based
[8] = system: Mus musculus; assay: Inhibition of 8-OH-DPAT-induced hypothermia in CD-1 mouse assessed change in body temperature at 20 mg/kg, ip pretreated for 45 mins followed by 8-OH-DPAT addition and measured after 45 mins by thermometric method; format: functional, organism-based
[9] = system: Mus musculus; assay: Induction of hypothermia in CD-1 mouse assessed as change in body temperature at 5 mg/kg, ip treated for 60 mins and measured after 30 mins by thermometric method; format: functional, organism-based
[10] = system: Mus musculus; assay: Induction of hypothermia in CD-1 mouse assessed as change in body temperature at 20 mg/kg, ip treated for 90 mins and measured after 30 mins by thermometric method; format: functional, organism-based
[11] = system: Mus musculus; assay: Inhibition of 8-OH-DPAT-induced hypothermia in CD-1 mouse assessed change in body temperature at 20 mg/kg, ip pretreated for 45 mins followed by 8-OH-DPAT addition and measured after 15 mins by thermometric method; format: functional, organism-based
[12] = system: Mus musculus; assay: Inhibition of 8-OH-DPAT-induced hypothermia in CD-1 mouse assessed change in body temperature at 20 mg/kg, ip pretreated for 45 mins followed by 8-OH-DPAT addition and measured after 60 mins by thermometric method; format: functional, organism-based
[13] = system: Mus musculus; assay: Induction of hypothermia in CD-1 mouse assessed as change in body temperature at 5 mg/kg, ip treated for 30 mins and measured after 30 mins by thermometric method; format: functional, organism-based
[14] = system: Mus musculus; assay: Inhibition of 8-OH-DPAT-induced hypothermia in CD-1 mouse assessed change in body temperature at 20 mg/kg, ip pretreated for 45 mins followed by 8-OH-DPAT addition and measured after 30 mins by thermometric method; format: functional, organism-based
[15] = system: Mus musculus; assay: Induction of hypothermia in CD-1 mouse assessed as change in body temperature at 5 mg/kg, ip treated for 90 mins and measured after 30 mins by thermometric method; format: functional, organism-based
[16] = system: Mus musculus; assay: Induction of hypothermia in CD-1 mouse assessed as change in body temperature at 20 mg/kg, ip treated for 60 mins and measured after 30 mins by thermometric method; format: functional, organism-based
[17] = system: Mus musculus; assay: Induction of hypothermia in CD-1 mouse assessed as change in body temperature at 20 mg/kg, ip treated for 120 mins and measured after 30 mins by thermometric method; format: functional, organism-based
[18] = system: Mus musculus; assay: Induction of hypothermia in CD-1 mouse assessed as change in body temperature at 20 mg/kg, ip treated for 30 mins and measured after 30 mins by thermometric method; format: functional, organism-based
[19] = organism: Mus musculus; assay: Effect on forepaw treading in CD-1 mouse in presence of 8-OH-DPAT; format: functional, organism-based
[20] = system: Mus musculus; assay: Psychoactive effect in CD-1 mouse assessed as effect on immobility time at 5 to 20 mg/kg, ip pretreated for 30 mins and measured after 6 mins by force swim test; format: ADME, organism-based; settings: in vivo, 0.1 h
[21] = organism: Mus musculus; assay: Effect on forepaw treading in CD-1 mouse up to 30 mins in presence of 8-OH-DPAT; format: functional, organism-based
[22] = organism: Mus musculus; assay: Effect on forepaw treading in CD-1 mouse; format: ADME, organism-based; settings: in vivo

5-hydroxytryptamine receptor 2A, sequence (P28223 whole entry): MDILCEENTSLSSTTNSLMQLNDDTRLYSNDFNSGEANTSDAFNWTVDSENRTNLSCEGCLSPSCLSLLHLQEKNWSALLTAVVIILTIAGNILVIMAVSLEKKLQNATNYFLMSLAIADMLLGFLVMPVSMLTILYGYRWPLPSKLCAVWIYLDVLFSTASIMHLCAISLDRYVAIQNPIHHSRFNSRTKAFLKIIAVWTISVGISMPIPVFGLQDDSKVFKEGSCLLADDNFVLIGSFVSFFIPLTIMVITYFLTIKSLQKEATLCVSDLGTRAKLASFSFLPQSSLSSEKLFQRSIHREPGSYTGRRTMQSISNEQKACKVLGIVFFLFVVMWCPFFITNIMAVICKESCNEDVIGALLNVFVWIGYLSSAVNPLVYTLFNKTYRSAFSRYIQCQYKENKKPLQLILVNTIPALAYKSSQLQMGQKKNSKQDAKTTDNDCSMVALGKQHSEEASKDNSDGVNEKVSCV

## COc1ccc(-c2c3n(c(=O)n(CCCCN4CCCC(c5c[nH]c6ccc(OC)cc56)C4)c2=O)CCCC3)cc1 (centres undefined)
[1]
  Ki: 1190 nM
[2]
  Ki: 52 nM
[3]
  Ki: 452 nM
[4]
  half-life at 1 µM: 7 min
[5]
  Ki: 546 nM
[6]
  Ki: 1800 nM

## COc1ccc2[nH]cc(C3CCCN(CCCCn4c(=O)c(-c5ccc(F)cc5)c5n(c4=O)CCCC5)C3)c2c1 (centres undefined)
[2]
  Ki: 76 nM

## COc1ccc2[nH]cc(C3CCCN(CCCCn4c(=O)c(-c5ccccc5OC)c5n(c4=O)CCCC5)C3)c2c1 (centres undefined)
[2]
  Ki: 239 nM

## O=c1c(-c2ccccc2F)c2n(c(=O)n1CCCCN1CCCC(c3c[nH]c4ccccc34)C1)CCCC2 (centres undefined)
[7]
  deltaT: 1 °C
[8]
  deltaT: -1.9 °C
[9]
  deltaT: 0.3 °C
[1]
  Ki: 325 nM
[2]
  Ki: 15 nM
[3]
  Ki: 1030 nM
[10]
  deltaT: 0.6 °C
[11]
  deltaT: -1.6 °C
[12]
  deltaT: -1.8 °C
[13]
  deltaT: 0.2 °C
[14]
  deltaT: -1.8 °C
[4]
  half-life at 1 µM: 12 min
[5]
  Ki: 2430 nM
[15]
  deltaT: 0.7 °C
[16]
  deltaT: 0 °C
[6]
  Ki: > 10000 nM
[17]
  deltaT: 0.7 °C
[18]
  deltaT: -0.8 °C

## COc1ccc(-c2c3n(c(=O)n(CCCCN4CCCC(c5c[nH]c6ccccc56)C4)c2=O)CCCC3)cc1 (centres undefined)
[2]
  Ki: 52 nM

## O=C1CC2(CCCC2)CC(=O)N1CCCCN1CCN(c2ncccn2)CC1 [BUSPIRONE]
[4]
  half-life at 1 µM: 6.6 min

## O=c1c(-c2ccc(Cl)cc2)c2n(c(=O)n1CCCCN1CCCC(c3c[nH]c4ccccc34)C1)CCCC2 (centres undefined)
[7]
  deltaT: 0.2 °C
[8]
  deltaT: -1.2 °C
[9]
  deltaT: 0.3 °C
[1]
  Ki: 1490 nM
[2]
  Ki: 30 nM
[3]
  Ki: 1320 nM
[10]
  deltaT: 0.5 °C
[11]
  deltaT: -1.1 °C
[12]
  deltaT: -1.2 °C
[13]
  deltaT: 0.1 °C
[14]
  deltaT: -1.1 °C
[5]
  Ki: 1380 nM
[15]
  deltaT: -0.1 °C
[16]
  deltaT: 0.7 °C
[6]
  Ki: 1650 nM
[17]
  deltaT: 0.3 °C
[18]
  deltaT: 0.3 °C

## COc1ccc2[nH]cc(C3CCCN(CCCCn4c(=O)c(-c5ccccc5Cl)c5n(c4=O)CCCC5)C3)c2c1 (centres undefined)
[2]
  Ki: 50 nM

## O=c1c(-c2ccccc2Cl)c2n(c(=O)n1CCCCN1CCCC(c3c[nH]c4ccc(F)cc34)C1)CCCC2 (centres undefined)
[2]
  Ki: 47 nM

## Cc1ccc(-c2c3n(c(=O)n(CCCCN4CCCC(c5c[nH]c6ccc(F)cc56)C4)c2=O)CCCC3)cc1 (centres undefined)
[2]
  Ki: 233 nM

## O=c1c(-c2ccccc2Cl)c2n(c(=O)n1CCCCN1CCCC(c3c[nH]c4ccccc34)C1)CCCC2 (centres undefined)
[7]
  deltaT: 0.8 °C
[9]
  deltaT: 0.3 °C
[1]
  Ki: 609 nM
[2]
  Ki: 8 nM
[3]
  Ki: 1030 nM
[10]
  deltaT: 0.3 °C
[13]
  deltaT: 0 °C
[4]
  half-life at 1 µM: 7 min
[5]
  Ki: 1360 nM
[15]
  deltaT: 0.9 °C
[16]
  deltaT: 0.2 °C
[6]
  Ki: 896 nM
[17]
  deltaT: 0.2 °C
[18]
  deltaT: -0.8 °C

## COc1ccccc1-c1c2n(c(=O)n(CCCCN3CCCC(c4c[nH]c5ccccc45)C3)c1=O)CCCC2 (centres undefined)
[2]
  Ki: 25 nM

## O=c1c(-c2ccccc2F)c2n(c(=O)n1CCCCN1CCCC(c3c[nH]c4ccc(F)cc34)C1)CCCC2 (centres undefined)
[2]
  Ki: 28 nM

## COc1ccc2[nH]cc(C3CCCN(CCCCn4c(=O)c(-c5ccc(Cl)cc5)c5n(c4=O)CCCC5)C3)c2c1 (centres undefined)
[2]
  Ki: 23 nM

## Cc1ccc(-c2c3n(c(=O)n(CCCCN4CCCC(c5c[nH]c6ccccc56)C4)c2=O)CCCC3)cc1 (centres undefined)
[2]
  Ki: 50 nM

## O=c1c(-c2ccc(Cl)cc2)c2n(c(=O)n1CCCCN1CCCC(c3c[nH]c4ccc(F)cc34)C1)CCCC2 (centres undefined)
[2]
  Ki: 259 nM

## COc1ccc2[nH]cc(C3CCCN(CCCCn4c(=O)c(-c5ccccc5)c5n(c4=O)CCCC5)C3)c2c1 (centres undefined)
[2]
  Ki: 102 nM

## COc1ccc2[nH]cc(C3CCCN(CCCCn4c(=O)c(-c5ccccc5F)c5n(c4=O)CCCC5)C3)c2c1 (centres undefined)
[2]
  Ki: 236 nM

## COc1ccc(-c2c3n(c(=O)n(CCCCN4CCCC(c5c[nH]c6ccc(F)cc56)C4)c2=O)CCCC3)cc1 (centres undefined)
[2]
  Ki: 42 nM

## COc1ccc2[nH]cc(C3CCCN(CCCCn4c(=O)c(-c5ccccc5C)c5n(c4=O)CCCC5)C3)c2c1 (centres undefined)
[2]
  Ki: 66 nM

## Cc1ccccc1-c1c2n(c(=O)n(CCCCN3CCCC(c4c[nH]c5ccccc45)C3)c1=O)CCCC2 (centres undefined)
[2]
  Ki: 62 nM

## O=c1c(-c2ccc(F)cc2)c2n(c(=O)n1CCCCN1CCCC(c3c[nH]c4ccccc34)C1)CCCC2 (centres undefined)
[7]
  deltaT: 0.5 °C
[8]
  deltaT: -0.3 °C
[9]
  deltaT: 0.3 °C
[1]
  Ki: 1280 nM
[2]
  Ki: 13 nM
[3]
  Ki: 1650 nM
[10]
  deltaT: -0.1 °C
[11]
  deltaT: -0.2 °C
[12]
  deltaT: -0.9 °C
[13]
  deltaT: 0.3 °C
[14]
  deltaT: -0.2 °C
[4]
  half-life at 1 µM: 7 min
[5]
  Ki: 1710 nM
[19]
  Activity: Active
[15]
  deltaT: 0.3 °C
[16]
  deltaT: 0.3 °C
[6]
  Ki: 1980 nM
[20]
  Activity: Non-Toxic
[17]
  deltaT: 0.1 °C
[18]
  deltaT: 0.1 °C

## O=c1c(-c2ccccc2)c2n(c(=O)n1CCCCN1CCCC(c3c[nH]c4ccccc34)C1)CCCC2 (centres undefined)
[7]
  deltaT: 0.8 °C
[8]
  deltaT: -0.9 °C
[9]
  deltaT: 0.3 °C
[1]
  Ki: 725 nM
[2]
  Ki: 27 nM
[3]
  Ki: 1150 nM
[10]
  deltaT: -0.2 °C
[11]
  deltaT: -1.2 °C
[12]
  deltaT: 0.7 °C
[13]
  deltaT: 0.2 °C
[14]
  deltaT: -1.1 °C
[4]
  half-life at 1 µM: 11.1 min
[5]
  Ki: 1090 nM
[15]
  deltaT: 0.3 °C
[16]
  deltaT: 0 °C
[6]
  Ki: 2350 nM
[17]
  deltaT: -0.1 °C
[18]
  deltaT: -0.6 °C

## O=c1c(-c2ccc(F)cc2)c2n(c(=O)n1CCCCN1CCCC(c3c[nH]c4ccc(F)cc34)C1)CCCC2 (centres undefined)
[7]
  deltaT: 0.9 °C
[8]
  deltaT: -0.3 °C
[9]
  deltaT: 0.8 °C
[1]
  Ki: 484 nM
[2]
  Ki: 31 nM
[3]
  Ki: 728 nM
[21]
  Activity: Active
[10]
  deltaT: 0.1 °C
[11]
  deltaT: -0.1 °C
[12]
  deltaT: -0.4 °C
[22]
  Activity: Non-Toxic
[13]
  deltaT: 0.8 °C
[14]
  deltaT: 0.2 °C
[4]
  half-life at 1 µM: 6.2 min
[5]
  Ki: 1110 nM
[15]
  deltaT: 0.6 °C
[16]
  deltaT: 0.1 °C
[6]
  Ki: 1050 nM
[17]
  deltaT: 0 °C
[18]
  deltaT: -0.6 °C

## COc1ccc2[nH]cc(C3CCCN(CCCCn4c(=O)c(-c5ccc(C)cc5)c5n(c4=O)CCCC5)C3)c2c1 (centres undefined)
[2]
  Ki: 321 nM

## Cc1ccccc1-c1c2n(c(=O)n(CCCCN3CCCC(c4c[nH]c5ccc(F)cc45)C3)c1=O)CCCC2 (centres undefined)
[2]
  Ki: 142 nM

## COc1ccccc1-c1c2n(c(=O)n(CCCCN3CCCC(c4c[nH]c5ccc(F)cc45)C3)c1=O)CCCC2 (centres undefined)
[2]
  Ki: 40 nM

## O=c1c(-c2ccccc2)c2n(c(=O)n1CCCCN1CCCC(c3c[nH]c4ccc(F)cc34)C1)CCCC2 (centres undefined)
[2]
  Ki: 105 nM
